Values quoted from earlier work in US20090054331A1, “HIGH TEMPERATURE STABLE PEPTIDE FORMULATION” (priority 2007, published 2009).

Experiments:
[1] = in vivo
human dental pulp cells = conditions: in vitro
human dental defects = conditions: clinical trial

For TDLQERGDNDISPFSGDGQPFKD [AC-100], the “effect on proliferation, differentiation and mineralization of human osteoblasts” value (human osteoblasts) is listed as “stimulate proliferation, differentiation, and mineralization”, the bone formation activities [1] is listed as “has shown bone formation activities in vivo” and the “proliferation of human dental pulp cells” value (human dental pulp cells) is listed as “stimulation of the proliferation”. For the same sequence, the “formation of new dentin” value (human dental defects) was “formation of new dentin”.
